For 64 compounds, IC50 results are on record in ChEMBL document CHEMBL1136837, “Unified QSAR approach to antimicrobials. 4. Multi-target QSAR modeling and comparative multi-distance study of the giant components of antiviral drug-drug complex networks” (Bioorg Med Chem, 2009).

The test system of this assay is Human immunodeficiency virus 1. The assay is described as follows: Antiviral activity against HIV1. In kind it is functional, organism-based.

A word on the IC50: it is the midpoint of a concentration-inhibition curve. High values mean weaker potency in that assay, low ones greater potency in that assay. On to `Cc1cc(/C=C/C#N)cc(C)c1Nc1ccnc(Nc2ccc(C#N)cc2)n1` [RILPIVIRINE], for which the IC50 came to 0.0004 µM.
In turn, `CC(C)OC(=O)c1cn(S(=O)(=O)c2ccccc2)c2ccccc12` yielded an IC50 of 5 µM.
Under `NC(=O)c1cccc2c1nc(-c1c(F)cccc1F)n2Cc1c(F)cccc1F` stands 0.37 µM; under `NC(=O)c1cn(S(=O)(=O)c2ccccc2)c2ccccc12`, 32 µM; under `O=C(O)c1ccc2ccc(/C=C/c3cccnc3)nc2c1O`, 100 µM.
`CC(C)(C)c1ccc(Sc2c(C(N)=O)[nH]c3ccc(Cl)cc23)cc1` came in with an IC50 of 8 µM.
For `Cc1cn([C@H]2S[C@@H](CO)C=C2F)c(=O)[nH]c1=O`, the IC50 turned out to be 100 µM.
In turn, `O=c1ccn([C@H]2S[C@@H](CO)C=C2F)c(=O)[nH]1` yielded an IC50 of 100 µM.
As for `Nc1ncnc2c1ncn2[C@H]1CC(F)(F)[C@H](CO)O1`, it took 100 µM to reach half-maximal inhibition (IC50).
In turn, `CCn1cc(C(=O)/C=C(/O)C(=O)O)c2ccccc21` returned an IC50 of 9 µM.
The compound `CC(C)(C)c1ccc(S(=O)(=O)c2c(C(N)=O)[nH]c3ccc(Cl)cc23)cc1` came in with an IC50 of 0.13 µM.
`Nc1nc(=O)n([C@H]2O[C@H](CO)C=C2F)cc1F` yielded an IC50 of 100 µM.
The compound `CC(c1cc(=O)[nH]c(SC2CCCC2)n1)c1c(F)cccc1F` (centres undefined) came in with an IC50 of 0.03 µM.
`Nc1ncnc2c1ncn2C1C=CC(OCP(=O)(O)OP(=O)(O)C(Br)(Br)P(=O)(O)O)C1` (centres undefined) showed an IC50 of 1000 µM.
For the compound `Cc1ncc([N+](=O)[O-])n1CCOC(c1ccccc1)c1ccccc1[N+](=O)[O-]` (centres undefined), the IC50 came out at 0.6 µM.
On to `O=C(/C=C(\O)c1nnn[nH]1)c1c[nH]c2ccc(F)cc12`, for which the IC50 is 1.8 µM.
`C=C(C)[C@@H]1CC[C@]2(C(=O)N[C@@H](CC(C)C)C(=O)O)CC[C@]3(C)[C@H](CC[C@@H]4[C@@]5(C)CC[C@H](O)C(C)(C)[C@@H]5CC[C@]43C)[C@@H]12` registered an IC50 of 3.22 µM.
Regarding `O=C(O)/C(O)=C/C(=O)c1cccc(OCc2ccccc2)c1`, the midpoint of inhibition, the IC50, lay at 0.35 µM.
As for `Nc1nc(F)nc2c1ncn2[C@H]1S[C@@H](CO)C=C1F`, inhibition was half-maximal at 11.5 µM (IC50).
`Nc1nc2c(ncn2C2C=CC(OCP(=O)(O)OP(=O)(O)C(F)(F)P(=O)(O)O)C2)c(=O)[nH]1` (centres undefined) displayed an IC50 of 25 µM.
For the compound `Nc1nc(=O)n([C@@H]2C=C(F)[C@H](CO)O2)cc1F`, inhibition was half-maximal at 0.018 µM (IC50).
In turn, `NC(=O)c1cc2ccc(Cl)cc2n1S(=O)(=O)c1ccccc1` came in with an IC50 of 66 µM.
The compound `O=C1CSC(c2c(F)cccc2Cl)N1c1cccc(Br)n1` (centres undefined) gave an IC50 of 0.064 µM.
Regarding `Nc1nc(O)c2ncn([C@H]3S[C@@H](CO)C=C3F)c2n1`, the IC50 is 43.5 µM.
As to `O=C1CSC(c2c(F)cccc2F)N1c1ccccn1` (centres undefined), the IC50 was determined as 0.855 µM.
Consider `O=c1cc(Cc2c(F)cccc2F)nc(SC2CCCC2)[nH]1`, for which the midpoint of inhibition, the IC50, lay at 0.08 µM.
On to `C=C[C@@]1(CO)C=C[C@H](n2cc(C)c(=O)[nH]c2=O)O1`, for which the IC50 is 100 µM.
Consider `N#Cc1c(Cl)n([C@@H]2O[C@H](CF)[C@@H](O)[C@H]2O)c2cc(Cl)c(Cl)cc12`, for which 40 µM corresponded to half-maximal inhibition (IC50).
For `CCO/N=C(\c1ccc(Br)cc1)C1CCN(C2(C)CCN(C(=O)c3cccnc3C)CC2)CC1`, the IC50 came to 0.0014 µM.
Compound `O=c1nc(O)ccn1[C@H]1CC(F)(F)[C@H](CO)O1` came in with an IC50 of 100 µM.
Under `O=Cc1cccc2c1nc(-c1c(F)cccc1F)n2Cc1c(F)cccc1F` stands 0.1 µM; under `O=Cc1c(Cl)n([C@@H]2O[C@H](CF)[C@@H](O)[C@H]2O)c2cc(Cl)c(Cl)cc12`, 20 µM; under `O=c1nc(O)ccn1[C@@H]1CC(F)(F)[C@H](CO)O1`, 100 µM.
The figure for `O=C1CSC(c2c(Cl)cccc2Cl)N1c1cccnc1` (centres undefined) is 95.1 µM; for `COC(=O)C(=O)CC(=O)c1cc2ccccc2n1C` it is 106 µM; for `O=C(NNC(=O)c1ccccc1S)c1ccccc1S` [BIS(THIOSALICYL)HYDRAZIDE] it is 4.3 µM.
`CCn1cc(C(=O)CC(=O)C(=O)OC)c2ccccc21`: the IC50 came to 19 µM.
The figure for `CCOC(=O)c1cc2ccc(Cl)cc2n1S(=O)(=O)c1ccc(Cl)cc1` is 200 µM; for `Nc1nc2c(ncn2C2C=CC(OCP(=O)(O)OP(=O)(O)C(Br)(Br)P(=O)(O)O)C2)c(=O)[nH]1` (centres undefined) it is 200 µM.
`O=C(O)/C(O)=C/C(=O)c1c[nH]c2ccccc12` returned an IC50 of 1.43 µM.
Compound `O=C(O)c1ccc2ccc(/C=C/c3ccco3)nc2c1O` showed an IC50 of 100 µM.
For `OC[C@H]1C=C(F)[C@@H](n2cnc3c(O)ncnc32)S1`, the IC50 amounted to 15.5 µM.
Take `CC(C)c1ccc(Sc2c(C(N)=O)[nH]c3ccc(Cl)cc23)cc1`: it took 1.9 µM to reach half-maximal inhibition (IC50).
`O=C1CSC(c2c(F)cccc2Cl)N1c1ccc(Cl)cn1` (centres undefined) gave an IC50 of 2.13 µM.
For the compound `CC(=O)Oc1ccc(/C=C/C(=O)O[C@H](C(=O)O)[C@H](OC(=O)/C=C/c2ccc(OC(C)=O)c(OC(C)=O)c2)C(=O)O)cc1OC(C)=O`, it took 15.7 µM to reach half-maximal inhibition (IC50).
Under `O=C(O)C(=O)CC(=O)c1cccc(Cc2ccccc2)c1` stands 0.1 µM; under `Cc1cn([C@@H]2CC(F)(F)[C@H](CO)O2)c(=O)nc1O`, 100 µM; under `Cc1cc(Br)c(Nc2ccnc(Nc3ccc(C#N)cc3)n2)c(Br)c1`, 0.00063 µM.
The figure for `Cc1c(Cc2c(F)cccc2F)nc(SC2CCCC2)[nH]c1=O` is 0.08 µM.
On to `Nc1ncnc2c1ncn2C1C=CC(OCP(=O)(O)OP(=O)(O)OP(=O)(O)O)C1` (centres undefined), for which the IC50 came out at 0.2 µM.
Compound `C[C@H]1O[C@@H](n2c(Cl)c(C#N)c3cc(Cl)c(Cl)cc32)[C@H](O)[C@@H]1O` yielded an IC50 of 32 µM.
Under `CC(=O)OCc1c(C)c2ccc3c(c2oc1=O)[C@@H](OC(=O)[C@@]12CC[C@](C)(C(=O)O1)C2(C)C)[C@@H](OC(=O)[C@@]12CC[C@](C)(C(=O)O1)C2(C)C)C(C)(C)O3` stands 14.8 µM; under `CC(=O)c1c(Cl)n([C@H]2C[C@H](O)[C@@H](CO)O2)c2cc(Cl)c(Cl)cc12`, 8 µM; under `COC(=O)C(C)NP(=O)(OC[C@@H]1C=C[C@H](n2cc(C)c(=O)[nH]c2=O)O1)Oc1ccc(Br)cc1` (some centres undefined) [STAMPIDINE], 0.003 µM.
The figure for `O=C(c1cc(Cc2ccccc2)ccn1)c1ccc2cccnc2c1O` is 0.05 µM; for `Cc1ccc(S(=O)(=O)c2c(C(N)=O)[nH]c3ccc(Cl)cc23)cc1` it is 0.003 µM; for `NNC(=O)c1[nH]c2ccc(Cl)cc2c1Sc1cc(Cl)ccc1N` it is 13 µM.
The compound `CC(C)Nc1cccnc1N1CCN(C(=O)c2cc3cc(NS(C)(=O)=O)ccc3[nH]2)CC1` [DELAVIRDINE] came in with an IC50 of 5.4 µM.
In the case of `O=C(/C=C/c1ccc(O)c(O)c1)NCC(OC(=O)/C=C/c1ccc(O)c(O)c1)C(=O)O` (racemic), the IC50 worked out at 0.19 µM.
The compound `O=C(O)/C(O)=C/C(=O)c1ccccc1` returned an IC50 of 25 µM.
The figure for `CC1(C)Oc2ccc3ccc(=O)oc3c2[C@@H](OC(=O)[C@@]23CC[C@](C)(C(=O)O2)C3(C)C)[C@H]1OC(=O)[C@@]12CC[C@](C)(C(=O)O1)C2(C)C` [DCK] is 16.1 µM.
Turning to `NC(=O)c1[nH]c2ccc(Cl)cc2c1S(=O)(=O)c1ccccc1` [L-737126], the IC50 was determined as 2 µM.
Take `Cc1cc(C)cc(Sc2c(C(N)=O)[nH]c3ccc(Cl)cc23)c1`: the IC50 came to 0.006 µM.
Take `CCOC(=O)c1cc2ccccc2n1S(=O)(=O)c1cc(Cl)ccc1[N+](=O)[O-]`: half-maximal inhibition (IC50) required 100 µM.
